The record followed here is patent US20140187556A1, “ANTI-AMYLOID COMPOUNDS AND METHODS” (Treventis Corporation, priority 2011, published 2014).

T1 sequence (P05067 672-711 limits assumed): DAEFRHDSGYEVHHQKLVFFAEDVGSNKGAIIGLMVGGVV

This assay concerns the target T1, Aβ40 (Homo sapiens, UniProt P05067).
T1 construct: pre-treated Aβ40 (40 μM in 20 mM Tris, pH 7.4)
In words: Thioflavin T (ThT) Aβ aggregation assay. Conditions: 20 μM Aβ40, 37 degrees C. It counts as biochemical. The procedure:
Aβ40 (1.0 mg) was pre-treated in a 1.5 mL microfuge tube with HFIP (1 mL) and sonicated for 20 min to disassemble any pre-formed Aβ aggregates. The HFIP was removed with a stream of argon and the Aβ dissolved in Tris base (5.8 mL, 20 mM, pH ˜10). The pH was adjusted to 7.4 with concentrated HCl (−10 μL) and the solution filtered using a syringe filter (0.2 μm) before being used.
The kinetic ThT assay for Aβ aggregation is similar to that of Chalifour et al (Chalifour et al, 2003, J. Biol. Chem. 278:34874-81). Briefly, pre-treated Aβ40 (40 μM in 20 mM Tris, pH 7.4), was diluted with an equal volume of 8 μM ThT in Tris (20 mM, pH 7.4, 300 mM NaCl). Aliquots of Aβ/ThT (200 μL) were added to wells of a black polystyrene 96-well plate, followed by 2 μL of a compound in DMSO (variable concentration), or DMSO alone (controls). Incubations were performed in triplicate and were taken to contain 20 μM Aβ, various concentration of compound in 20 mM Tris, pH 7.4, 150 mM NaCl, 1% DMSO. Plates were covered with clear polystyrene lids and incubated at 37 degrees C. in a Tecan Genios microplate reader. Fluorescence readings (λex=450 nm, λem=480 nm) were taken every 15 min., after first shaking at high intensity for 15 s and allowing to settle for 10 s before each reading. Active compounds attenuated the increase in fluorescence over time that occurred in controls.
The compound `O=C(c1ccccc1)N1CCN(c2ccc(S(=O)(=O)C(F)(F)F)c(NCc3ccccc3)c2)CC1` [TRV 1186, (4-(3-(benzylamino)-4-((trifluoromethyl)sulfonyl)phenyl)piperazin-1-yl)(phenyl)methanone] had an IC50 above 50 µM.
With `CNC(=O)c1cccc(-c2ccc([N+](=O)[O-])c(NCc3ccccc3)c2)c1` [TRV 1101, 3′-(benzylamino)-N-methyl-4′-nitrobiphenyl-3-carboxamide], the IC50 was above 50 µM.
Under `N#Cc1cccc(-c2ccc([N+](=O)[O-])c(NCc3ccccc3)c2)c1` [TRV 1136, 3′-(benzylamino)-4′-nitrobiphenyl-3-carbonitrile] stands above 50 µM; under `CC(C)Nc1cc(N2CCN(C(=O)c3ccccc3)CC2)ccc1C#N` [TRV 1168, 4-(4-benzoylpiperazin-1-yl)-2-(isopropylamino)benzonitrile], above 50 µM.
Under `O=C(C1CCN(c2ccc([N+](=O)[O-])c(NCc3ccccc3)c2)CC1)N1CCCC1` [TRV 1133, (1-(3-(benzyl amino)-4-nitrophenyl)piperidin-4-yl)(pyrrolidin-1-yl)methanone] stands 17.9 ± 13.3 µM.
Regarding `O=C(C1CCCN(c2ccc([N+](=O)[O-])c(NCc3ccccc3)c2)C1)N1CCCC1` (centres unmarked) [TRV 1131, (1-(3-(benzylamino)-4-nitrophenyl)piperidin-3-yl)(pyrrolidin-1-yl)methanone], the IC50 is 27.8 ± 27.6 µM.
Compound `CCN(CC)c1cc(N2CCN(C(=O)c3ccccc3)CC2)ccc1[N+](=O)[O-]` [TRV 1135, (4-(3-(diethylamino)-4-nitrophenyl)piperazin-1-yl)(phenyl)methanone] returned an IC50 of 12.4 ± 0.62 µM.
As for `CC1CN(c2ccc([N+](=O)[O-])c(Nc3ccccc3)c2)CC(C)N1C(=O)c1ccccc1` (centres unmarked) [TRV 1098, (2,6-dimethyl-4-(4-nitro-3-(phenyl amino)phenyl)piperazin-1-yl)(phenyl)methanone], the IC50 was determined as 3.99 ± 3.77 µM.
On to `O=C(c1ccccc1)N1CCN(c2ccc([N+](=O)[O-])c(NC3CCC3)c2)CC1` [TRV 1149, (4-(3-(cyclobutylamino)-4-nitrophenyl)piperazin-1-yl)(phenyl)methanone], for which the IC50 is above 10 µM.
On to `N#Cc1ccc(N2CCN(C(=O)c3ccccc3)CC2)cc1N1CCCC1` [TRV 1167, 4-(4-benzoylpiperazin-1-yl)-2-(pyrrolidin-1-yl)benzonitrile], for which the IC50 was above 50 µM.
As for `O=C(c1ccccc1)N1CCN(c2cc(F)cc(N3CCCC3)c2)CC1` [TRV 1170, (4-(3-fluoro-5-(pyrrolidin-1-yl)phenyl)piperazin-1-yl)(phenyl)methanone], the figure is above 50 µM; as for `O=C(c1ccccc1)N1CCN(c2ccc([N+](=O)[O-])c(N3CCOCC3)c2)CC1` [TRV 1138, (4-(3-morpholino-4-nitrophenyl)piperazin-1-yl)(phenyl)methanone], above 10 µM; as for `NC(=O)c1cccc(-c2ccc([N+](=O)[O-])c(NCc3ccccc3)c2)c1` [TRV 1103, 3′-(benzylamino)-4′-nitrobiphenyl-3-carboxamide], 10.5 ± 0.75 µM.
As for `O=C(c1ccccc1)N1CCN(c2cc(F)c(F)c(NCc3ccccc3)c2)CC1` [TRV 1190, (4-(3-(benzylamino)-4,5-difluorophenyl)piperazin-1-yl)(phenyl)methanone], the IC50 was around 50 µM.
Under `O=C(c1ccccc1)N1CCN(c2cc(F)c(C(F)(F)F)c(N3CCCC3)c2)CC1` [TRV 1175, (4-(3-fluoro-5-(pyrrolidin-1-yl)-4-(trifluoromethyl)phenyl)piperazin-1-yl)(phenyl)methanone] stands above 50 µM; under `O=C(c1ccccc1)N1CCN(c2cc(N3CCCC3)cc(C(F)(F)F)c2)CC1` [TRV 1163, phenyl(4-(3-(pyrrolidin-1-yl)-5-(trifluoromethyl)phenyl)piperazin-1-yl)methanone], above 50 µM.
As for `O=[N+]([O-])c1ccc(-c2cccc(C(O)C(F)(F)F)c2)cc1N1CCCC1` (centres unmarked) [TRV 1155, 2,2,2-trifluoro-1-(4′-nitro-3′-(pyrrolidin-1-yl)-[1,1′-biphenyl]-3-yl)ethanol], the figure is 6.65 ± 1.97 µM.

What is called IC50 is the point on the concentration scale where inhibition reaches its midpoint.
